Data published in patent US20250296942A1, “Phosphonate-Based Coordination Complexes and Methods of Preparation and Use Thereof” (University of Puerto Rico, priority 2021, published 2025).
pIC50: −log10 of the molar value.

What was measured:
[1] = tested on: human breast cancer MCF-7 cell line; experiment: AlamarBlue cytotoxicity, BPBPA series, MCF-7; type: cell-based
Protocol: Cell culture methods. MCF-7, MDA-MB-231, and hFOB 1.19 cell lines were incubated employing DMEM (37° C.) and DMEM: F12 (34° C.) medium, respectively, in a 5% CO2. Cell lines were supplemented using 10% FBS and 1% Pen-Strep and medium exchange was performed twice a week. Cell passages were carried out at 80% confluency.
Cell-based assays. Cell lines were seeded in 96 well plates at a density of 5×10^3 cells/mL, cells were incubated for 24 h before treatment. Both cell lines were treated with 100 μL of BPBPA (0-400 μM), LET (0-200 μM), unloaded and loaded nano-Ca@BPBPA (0-50 μM). All cell-based assays were performed for 24, 48, and 72 h of treatment. Control groups were treated with media (DMEM or DMEM: F12) supplemented with 1% Pen-Strep. Then, the media was removed and replaced with 100 μL of 10% AlamarBlue® solution. The 96 well plates were incubated for 4 h before measurements. Then, the fluorescence was assessed at 560 nm of excitation and λmax 590 nm of emission. The cell viability (%) was evaluated by contrasting the percentage of live cells of the control groups with the cells treated with BPBPA, LET, unloaded and loaded nano-Ca@BPBPA. The half-maximal inhibitory concentration (IC50) was determined for BPBPA and letrozole employing the dose-response curves (% cell live vs. concentration). The relative cell live (% RCL) was assessed for the unloaded and loaded nano-Ca@BPBPA, utilizing LET as a control group. The IC50 and % RCL were plotted using the GraphPad Prism software vs. 9.3.0.
The cytotoxicity of BPBPA (control), LET (control), nano-Ca@BPBPA (control), and drug-loaded nano-Ca@BPBPA (experimental) was investigated employing the human breast cancer, MCF-7 and MDA-MB-231, and the human osteoblast, hFOB 1.19, cell lines. The human MCF-7 cell line represents an ER-positive breast cancer model with estrogen, progesterone, and glucocorticoid receptors.^1 While, the human MDA-MB-231 cells correspond to a model of ER-negative breast cancer. Both selected cancer cell lines can be implicated in the development and progress of bone metastases in patients.^40,41 The human fetal hFOB 1.19 cells represent a homogeneous osteoblast-like (non-cancerous) model commonly employed to assess osteoblast differentiation.^42 The cytotoxicity of these materials was evaluated by determining the IC50 and % RCL. […] Similar results were found for MDA-MB-231 and hFOB 1.19 cell lines treated with LET (IC50 >200 μM) at the same time points (Supporting Information).
Cell culture methods. MCF-7 and MDA-MB-231 were incubated employing DMEM media at 37° C. in 5% CO2. The hFOB 1.19 cell lines were incubated using DMEM: F12 at 34° C. in 5% CO2. Cell lines were supplemented using 10% FBS and 1% Pen-Strep. The media was exchanged twice per week. Cell passages were carried out at 80% confluency.
Seeding. Cell lines were seeded in 96 well plates at a density of […] cells/mL; cells were incubated for 24 h before each treatment.
Treatment. Cell lines were treated with 100 μL of BPBPA (0-400 μM), LET (0-200 μM), unloaded and loaded nano-Ca@BPBPA (0.5-50 μM). Control groups were treated with media (DMEM or DMEM: F12) supplemented with 1% Pen-Strep. All cell-based assays were performed after 24, 48, and 72 h of treatment and in triplicate.
AlamarBlue@assay. To determine the cell viability, the media was removed and replaced with 100 μL of 10% AlamarBlue® solution. The 96 well plates were incubated for 4 h before measurements. Then, the fluorescence was assessed at 560 nm of excitation and λmax 590 nm of emission.

[2] = Release of letrozole from drug-loaded BPBPA-Ca in FaSSGF; type: physicochemical
Protocol: (§1) LET release curve from BPBPA-Ca. The release curve of LET from BPBPA-Ca was determined in FaSSGF. About 100 mL of FaSSGF were placed in a 250-mL beaker and left in constant stirring at 37° C. (150 rpm). To record the first time point (0 h), an aliquot (1 mL) was taken out before adding the drug-loaded BPBPA-Ca. Subsequently, about 20 mg of powdered drug-loaded BPBPA-Ca (experimental) were placed into the FaSSGF solution. After each time point (0, 1, 3, 6, 24, 48, and 72 h), an aliquot (1 mL) was taken out and diluted in a 5 mL volumetric flask. Once the experiment was completed, the absorbance was measured at 238 nm to determine the amount (%) of LET release from the BPBPA-Ca. The release curve of LET (control) in FaSSGF was determined for comparison. This experiment was accomplished in duplicate.
Furthermore, the release of LET from the drug-loaded BPBPA-Ca was investigated in FaSSGF (pH=1.60) at 37° C. The LET released from BPBPA-Ca was quantified by measuring the increase in the LET concentration over time of the supernatant at the lambda max (λmax=238 nm). It was noticed that the drug-loaded BPBPA-Ca reaches a maximum release of LET ([…]) at 24 h (FIG. 91B). […] These findings confirm that BPBPA-Ca can be degraded in acidic conditions and release its cargo (LET) in a controlled and pH-dependent manner.
as §1, with “Release experiment.” for “LET release curve from BPBPA-Ca.”, “performed” for “accomplished”, “duplicate. FIG. 150 depicts the release curve of LET from the BPBPA-Ca channels.” for “duplicate.”

SMILES: N#Cc1ccc(C(c2ccc(C#N)cc2)n2cncn2)cc1 [LET, letrozole]
- % RCL ([1]; 0.5 μM, 24 h): ~100%
- % RCL ([1]; 0.5 μM, 48 h): ~100%
- % RCL ([1]; 0.5 μM, 72 h): 88±5%
- % RCL ([1]; 1.6 μM, 72 h): 81%
- % RCL ([1]; 3.1 μM, 24 h): 99±2%
- % RCL ([1]; 3.1 μM, 48 h): 86±3%
- % RCL ([1]; 3.1 μM, 72 h): 78±1%
- % RCL ([1]; 6.3 μM, 24 h): 99±1%
- % RCL ([1]; 6.3 μM, 72 h): 75±3%
- % RCL ([1]; 12.5 μM, 72 h): 70±1%
- pIC50 ([1]; Homo sapiens, MCF7, 72 h): ~4.70
- LET released (mean) ([2]; FaSSGF pH 1.60, 37 °C, 1 h): 65%
- LET released (mean) ([2]; FaSSGF, 3 h): 72%
- LET released (mean) ([2]; FaSSGF, 6 h): 75%
- LET released (mean) ([2]; FaSSGF, 24 h): 93%
- LET released (mean) ([2]; FaSSGF, 48 h): 94%
- LET released (mean) ([2]; FaSSGF, 72 h): 94%
